By IC50 is commonly meant the concentration at which inhibition is half-maximal. A high value points to weaker potency in that assay.

Molecules are shown by their SMILES. Bounds are passed on as bounds.

The source of these data is US7759337B2, “Phthalazine compounds and methods of use” (Amgen Inc., priority 2005, dated 2010).

The test system of the assay is production of TNF by monocytes activated with bacterial lipopolysaccharide (LPS). The assay is described as follows: Lipopolysaccharide-activated monocyte TNF production assay. Format: cell-based. The following applies: Homo sapiens; whole blood monocyte assay (LPS induced TNF release). The procedure, abridged:
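Adherent human PBMC-derived monocytes preincubated 60 min with nine two-fold compound dilutions, then stimulated with E. coli K532 LPS (30 ng/mL in the added medium) for 4 h at 37 °C. Supernatant TNF measured by sandwich ELISA; IC50 is the compound concentration halving TNF production, from second-order polynomial fits.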
`Cc1cc(C)c(-c2nncc3cc(-c4cc(C(=O)NC5CC5)ccc4C)ccc23)c(C)c1` [Example 121, N-cyclopropyl-3-(1-mesitylphthalazin-6-yl)-4-methylbenzamide] had a 50% inhibitory concentration (IC50) of no more than 5 µM.

Compound `Cc1ccc(C(N)=O)cc1-c1ccc2c(N3CCS(=O)(=O)CC3)nncc2c1` [Example 127, 3-[1-(1,1-dioxidothiomorpholin-4-yl)phthalazin-6-yl]-4-methylbenzamide] registered an IC50 of no more than 5 µM.

In turn, `Cc1ccc(C(=O)NC2CC2)cc1-c1ccc2c(OC3CCN(C)CC3)nncc2c1` [Example 319, N-cyclopropyl-4-methyl-3-{1-[(1-methylpiperidin-4-yl)oxy]phthalazin-6-yl}benzamide] came in with a concentration for half-maximal inhibition (IC50) of no more than 5 µM.

`COCCNc1nncc2cc(-c3cc(C(=O)NC4CC4)ccc3C)ccc12` [Example 194, N-cyclopropyl-3-{1-[(2-methoxyethyl)amino]phthalazin-6-yl}-4-methylbenzamide] yielded an IC50 of no more than 5 µM.

As for `Cc1ccc(C(=O)NC2CC2)cc1-c1ccc2c(NCCCN3CCCC3=O)nncc2c1` [Example 310, N-cyclopropyl-4-methyl-3-(1-{[3-(2-oxopyrrolidin-1-yl)propyl]amino}phthalazin-6-yl)benzamide], the IC50 was no more than 5 µM.

Compound `COc1ccc(C(F)(F)F)cc1NC(=O)c1ccc(C)c(-c2ccc3c(N4CCOCC4)nncc3c2)c1` [Example 43, N-(2-methoxy-5-(trifluoromethyl)phenyl)-4-methyl-3-(1-morpholinophthalazin-6-yl)benzamide] returned an IC50 of no more than 5 µM.

`CNC(=O)c1ccc(C)c(-c2ccc3c(N4CCOCC4)nncc3c2)c1` [Example 181, N,4-dimethyl-3-(1-morpholin-4-ylphthalazin-6-yl)benzamide]: the 50% inhibitory concentration (IC50) is no more than 5 µM.
